Patent US7838511B2, “Compositions and methods for treating, preventing and/or ameliorating cancers, the onset of cancers or the symptoms of cancers” (The Board of Regents of the University of Texas System, priority 2003, dated 2010)

Key:
[1] = system: SW-480 colon cancer cell line; test: SW-480 colon cancer cell DNA synthesis; assay type: cell-based; conditions: mean ± SEM
Procedure: (§1) PC-NSAIDs were also tested on another type of cancer, a colon cancer cell line, SW-480.

[2] = system: SW-480 colon cancer cell line; test: SW-480 colon cancer cell number; assay type: cell-based; conditions: mean ± SEM
Procedure: as §1

[3] = system: MCF-7 breast cancer cells; test: MCF-7 DNA synthesis (thymidine incorporation into cellular DNA); assay type: cell-based; conditions: 5 mM, mean ± SEM
Procedure: Studies were further performed to determine the mechanism by which ASA and PC-ASA reduced cell number. MCF-7 cells were again grown in the absence or presence of ASA and PC-ASA, and cell proliferation was assessed by measurement of titriated thymidine incorporation into cellular DNA.

[4] = system: MCF-7 breast cancer cells; test: MCF-7 breast cancer cell growth / cell number (MTT assay); assay type: cell-based; conditions: for Cell number (% control): mean ± SEM
Procedure: Using MCF-7 breast cancer cells grown in culture, a dose-response to aspirin (1.25 to 20 mM) was performed initially. After 48 hours of exposure to the various aspirin (acetyl salicylic acid, ASA) concentrations, mitochondrial 3-(4,5-dimethylthiazol-2-yl)-2,5-diphenyltetrazolium bromide (MTT) assays were performed. The MTT assay produces a measure of cell number and is used to monitor growth or inhibition of growth of the MCF-F breast cancer cells, i.e., measure the relative growth inhibitor activity of the compositions.
To test the relative growth inhibitor activity of phospholipid associated aspirin (PC-ASA) preparations, PC-ASA preparations were made having ASA concentrations that gave no more than 50% inhibition of growth (e.g., 2.5 and 5 mM) as shown in FIG. 2. In this example and in all subsequent examples, cell growth was assessed by measuring mitochondrial 3-(4,5-dimethylthiazol-2-yl)-2,5-diphenyltetrazolium bromide (MTT) activity. Those concentration of ASA were chosen so that any PC effects could be readily observed. After the preparation of the PC-ASA preparation, MCF-7 breast cancer cells were exposed for 48 hours to either ASA or a PC-ASA having the same ASA concentration.
MCF-7 breast cancer cells were grown in culture and exposed to aspirin (acetyl salicylic acid, ASA) and PC-ASA at equimolar concentrations. An assay was performed to estimate cell number.

[5] = system: MCF-7 cells; test: Lactate dehydrogenase (LDH) release (necrosis) of MCF-7 cells; assay type: cell-based; conditions: 0.6 mM, 5 hours; FIG. 4
Procedure: The growth inhibitor activity of the PC-ASA preparations on MCF-7 cells could be through increased apoptosis or necrosis or inhibition of cell proliferation. To differentiate between the first two possibilities, the effect of the PC-ASA preparations on release of the cytosolic enzyme lactate dehydrogenase (LDH) as a measure of necrosis were performed. For this study, MCF-7 cells were exposed to 2.5 and 5 mM ASA or PC-ASA preparations for 48 hours, as before. The media was collected and assayed for LDH activity (the assay is a kit available from Sigma Chemical Co., St. Louis, Mo.). To act as a positive control, some cells were exposed to a bile acid, 0.6 mM sodium deoxycholate (DOC), for 5 hours before LDH assay. […] Yet the ASA and PC-ASA preparations clearly reduce the number of MCF-7 cells at these concentrations. The most likely explanation for these findings is that the NSAIDs are inducing apoptosis rather than necrosis. This possibility is consistent with reports in the literature (see, e.g., Xiaojun L, Xie W, Reed D, Bradshaw W S, Simmons D L. Nonsteroidal antiinflammatory drugs cause apoptosis and induce cyclooxygenases in chicken embryo fibroblasts. Proc Natl Acad Sci USA 1995; 92:7961-7965.). Another possibility is that the PC-NSAID act by inhibiting cell proliferation.

[6] = system: Leiomyosarcoma of the bladder; test: Bladder cancer (leiomyosarcoma) in a cat, ultrasonographic follow-up; assay type: in vivo, domestic cat; conditions: assessed by ultrasound
Procedure: To confirm that the PC-NSAIDs also have anti-cancer activity in vivo, a study has been performed on a domestic cat. As summarized in Table 3, the animal was diagnosed in December of 2003 with Leiomyosarcoma of the bladder, a particularly aggressive form of cancer.
The cat was treated surgically for resection of the tumor and was then placed on standard Vincristine chemotherapy for three weeks. […] Eventually, the tumor began to grow again and a treatment of lecithin combined with an NSAID, piroxicam, was begun. […] The cat is continuing to be treated with PC-piroxicam as of this filing.

Row | Compound | DNA synthesis (% control) ([1]; 1 mM) | Cell number (% control) ([2]; 1 mM) | DNA synthesis (% control) ([1]; 5 mM) | Cell number (% control) ([2]; 5 mM) | DNA synthesis (% control) [3] | Cell number (% control) ([4]; MCF-7, 5 mM) | further results
1 | CC(C)Cc1ccc(C(C)C(=O)O)cc1 (stereo not drawn) [IBU, ibuprofen] | 79 ± 1 % control | 81 ± 2 % control |  |  |  |  | 
2 | CC(=O)Oc1ccccc1C(=O)O [ASA, acetyl salicylic acid] |  |  | 102 ± 4 % control | 68 ± 3 % control | 85 ± 8 % Control | 55 ± 3 % Control | inhibition of growth ([4]; ASA 2.5 and 5 mM, MTT, FIG. 2): no more than 50%; ASA concentration with inhibitor effect on growth of the cells ([4]; MTT assay, 48 hours exposure, dose-response 1.25 to 20 mM, FIG. 2): ≥ 2.5 mM
3 | sodium deoxycholate [DOC] |  |  |  |  |  |  | LDH release (necrosis), positive control [5]: caused the release of cellular LDH
4 | CC[C@]1(O)C[C@H]2CN(CCc3c([nH]c4ccccc34)[C@@](C(=O)OC)(c3cc4c(cc3OC)N(C=O)[C@H]3[C@@](O)(C(=O)OC)[C@H](OC(C)=O)[C@]5(CC)C=CCN6CC[C@]43[C@@H]65)C2)C1 [Vincristine] |  |  |  |  |  |  | effect on tumor growth (in words) [6]: did not stop the remaining tumor growth
5 | phosphatidylcholine [PC] | 97 ± 5 % control | 106 ± 13 % control | 65 ± 4 % control | 106 ± 7 % control | 41 ± 1 % Control | 114 ± 3 % Control | inhibiting the growth of the breast cancer cells (in words) ([4]; 2.5 and 5 mM, 48 hours, MTT, FIG. 3): did not adversely affect the growth of the cells; inhibiting the growth of the breast cancer cells (in words, Table 1) ([4]; MCF-7, 5 mM, equimolar): not effective at inhibiting the growth of the cells
